Measurements from patent publication US20240317746A1, “CRYSTALLINE FORMS OF AN AZETIDINE PARP1 INHIBITOR” (XinThera, Inc., priority 2023, published 2024).
Converted amounts (≈) assume the structure as drawn. “And” between values parts separate entries of the source, which are not always exact repeats. Identical values can stand only once. “Also recorded” adds a separate entry of the source. Counter-ions that a name gives are not always drawn. Each block holds one compound with its values, some of them ahead of it.

Key:
Type in all cases: physicochemical
[1] = Solid-state stability at 60° C. (capped) and 40° C./75% RH (open)
Procedure: (capped) and 40° C./75% RH (open) for 7 days. Duplicate samples were prepared at each condition. The stability sample was dissolved in diluent to prepare solution at ˜1 mg/mL for HPLC purity analysis. Solid samples were analyzed by XRPD to check the crystal form. […] (capped) and 40° C./75% RH (open) for at least 7 days.

[2] = Mechanical stability of Form I (manual grinding); conditions: ground by pestle and mortar for about 1 minute and 5 minutes
Procedure: Appropriate amount of Form I was manually ground by pestle and mortar for about 1 minute and 5 minutes, respectively. The ground samples were analyzed by XRPD.

[3] = DVS test (dynamic vapor sorption, hygroscopicity); conditions: for hygroscopicity (in words): DVS
Procedure: All the three target forms remained no change after DVS test.
Dynamic Vapor Sorption (DVS) was used to study hygroscopicity on Model Q5000 SA (TA Instruments, New Castle, DE). A sample (1-10 mg) was placed in an aluminum pan and loaded on the sample side of the twin pan balance. The water sorption and desorption were studied as a function of relative humidity (RH) at 25° C. in 10% RH increments from 0% RH to 90% RH and then back to 0%. […] Data analysis was performed using Universal Analysis 2000 Version 4.7A (TA Instruments, New Castle, DE).

[4] = pH solubility profile of Form I in pH buffers; conditions: for XRPD 4 h / XRPD 24 h: wet cake
Procedure: Different pH buffers (pH 1.0, 3.0, 5.0, 6.8 and 9.0) were prepared by method in Table 18. Appropriate amount of Form I was added into 1.4 mL of different buffers (pH=1.0, 3.0, 5.0, 6.8 and 9.0) to make suspensions. The suspensions were kept shaking with a speed of 1000 rpm at 25° C. for 4 and 24 hours. At each point, the suspensions were centrifuged, and the supernatant was inspected by UPLC/pH, and the wet cakes were analyzed by XRPD. Duplicate samples were prepared.

[5] = Stability relationship study (slurry turnover of Form II); conditions: anhydrates Form I vs Form II
Procedure: Form II was prepared via heating starting material to 220° C. in DSC pans. Then, about 15 mg of Form II was stirred in 0.5 mL of selected solvent at desired temperatures for 2 and 5 days. Solid samples were collected by filtration and characterized by XRPD.

[6] = Preliminary solubility test: estimated solubility at RT by visual observation; conditions: organic solvent or mixture, thermodynamic from solid, read-out: Solubility
Procedure: The solubility of Compound 1 (starting material) was estimated at RT in 18 single solvents and 6 solvent mixtures by visual observation. Approximately 5 mg solids were weighed into 8 mL glass vial, and then solvent was added stepwise until solids were dissolved completely or a total of solvent volume reached 5 mL. […] The solubility was estimated and for reference only.

[7] = Solubility in bio-relevant media (SGF, FaSSIF, FeSSIF) and water; conditions: for XRPD 0.5 h / XRPD 2 h / XRPD 24 h: filter cake; for Solubility 0.5 h / Solubility 2 h / Solubility 24 h: average n=2
Procedure: At 0.5, 2 and 24 hours, about 0.6 mL of each suspension was filtered, the filtrate was analyzed by HPLC and pH meter, and the filter cake was analyzed by XRPD. The samples were prepared in duplicate (n=2) per condition. Average value (n=2) was presented.
HPLC analysis was performed with an Agilent HPLC 1260 series instrument.

[8] = Exposure of solid to air at about 38% RH and 22° C.; conditions: exposed to air at about 38% RH and 22° C.
Procedure: 6 g of Compound 1 Form I, about 99 wt % purity, was dissolved in a mixture of about 96 g of DCM and about 20 g MeOH at about 32° C. The solution was polish filtered and then the vessel was rinsed forward with a mixture of about 20 g of DCM and about 3.6 g of MeOH. The filtrate was charged with a solution containing about 2.28 g of L-tartaric acid dissolved in about 6 mL of water at about 22° C. A slurry of solids formed after stirring for about 1 day. The slurry was distilled under vacuum to about 3 V (about 20 mL) at about 40° C., and then cooled to about 22° C. It was charged with about 87 g of acetone, held at about 22° C. for about 1 h, and then cooled to about 0° C. After holding for about 4 h, the slurry was filtered, rinsed with about 24 g of pre-cooled acetone twice. The wet cake was dried at 50° C. with full house vacuum under nitrogen sweep for about 4 days to afford about 7.36 g of L-tartrate Form IV (with a small amount of L-tartrate Form I). […] When exposed to air at about 38% RH and 22° C., a small sample of Compound 1 L-tartrate Form IV completely converted to Compound 1 L-tartrate Form III in less than 20 min.

[9] = aqueous buffer, thermodynamic from solid, pH 3.0 buffer (25 mM citrate), initial pH 3.01, solid loading 5 mg/mL, 25° C.
[10] = aqueous buffer, thermodynamic from solid, pH 5.0 buffer (25 mM citrate), initial pH 4.95, solid loading 5 mg/mL, 25° C.
[11] = aqueous buffer, thermodynamic from solid, pH 6.8 buffer (25 mM phosphate), initial pH 6.78, solid loading 5 mg/mL, 25° C.
[12] = aqueous buffer, thermodynamic from solid, pH 9.0 buffer (25 mM DEA), initial pH 9.01, solid loading 5 mg/mL, 25° C.
[13] = pH 1.0 buffer, initial pH 1.01, solid loading 60 mg/mL
[14] = pH 3.0 buffer, initial pH 3.01, solid loading 5 mg/mL
[15] = pH 5.0 buffer, initial pH 4.95, solid loading 5 mg/mL
[16] = pH 6.8 buffer, initial pH 6.78, solid loading 5 mg/mL
[17] = pH 9.0 buffer, initial pH 9.01, solid loading 5 mg/mL
[18] = simulated gastric fluid, thermodynamic from solid, pH 1.0 buffer (0.1N HCl), initial pH 1.01, solid loading 60 mg/mL, 25° C.
[19] = FaSSIF, initial pH 6.45, 37° C.
[20] = FaSSIF, initial pH 6.45, filtrate
[21] = FeSSIF, initial pH 4.99, 37° C.
[22] = FeSSIF, initial pH 4.99, filtrate
[23] = Water, initial pH 5.41, filtrate

XRPD - 7 d ([1]; 40° C./75% RH (open), 7 days): Unchanged | physical and chemical stability ([1]; 60° C. (capped) and 40° C./75% RH (open), 7 days): physically and chemically stable | XRPD - 7 d ([1]; 60° C. (capped), 7 days): Unchanged | Initial Purity ([1]; before storage, HPLC): 99.16 area % | hygroscopicity (in words) [3]: slightly hygroscopic | hygroscopicity (in words) ([3]; listed as Form I): slightly hygroscopic | crystal form after DVS test ([3]; XRPD after DVS): remained unchanged | water uptake ([3]; at 80% RH): 0.5% | water uptake ([3]; at 80% RH, listed as Form I): 0.5% and < 1% | water uptake ([3]; at 90% RH): 0.6% | water uptake ([3]; at 90% RH, listed as Form I): 0.6% | solubility at 4 h [4, 9]: 2460 µg/mL (≈ 5600 µM) | solubility at 24 h [4, 9]: 784 µg/mL (≈ 1780 µM) | solubility at 4 h [4, 10]: 83 µg/mL (≈ 189 µM) | solubility at 24 h [4, 10]: 84 µg/mL (≈ 191 µM) | solubility at 4 h [4, 11]: 8 µg/mL (≈ 18.2 µM) | solubility at 24 h [4, 11]: 8 µg/mL (≈ 18.2 µM) | solubility at 4 h [4, 12]: 14 µg/mL (≈ 31.8 µM) | solubility at 24 h [4, 12]: 14 µg/mL (≈ 31.8 µM) | solubility ([4]; pH 1, simulated gastric fluid, thermodynamic from solid, 0.1 N HCl, 25° C., read-out: solubility (highest)): > 40 mg/mL | pH 4 h [4, 13]: 2.48 | pH 24 h [4, 13]: 2.38 | XRPD 4 h ([4]; pH 1.0 buffer): Form I | XRPD 24 h ([4]; pH 1.0 buffer): Form I | form change of the solid ([4]; pH 3 buffer at 24 h): converted into Citrate Form I | pH 4 h [4, 14]: 3.30 | pH 24 h [4, 14]: 3.45 | XRPD 4 h ([4]; pH 3.0 buffer): Form I | XRPD 24 h ([4]; pH 3.0 buffer): Citrate Form I | pH 4 h [4, 15]: 4.88 | pH 24 h [4, 15]: 4.90 | XRPD 4 h ([4]; pH 5.0 buffer): Form I | XRPD 24 h ([4]; pH 5.0 buffer): Form I | solubility (in words) ([4]; pH 6.8 and 9 buffers, 25° C.): low | pH 4 h [4, 16]: 6.75 | pH 24 h [4, 16]: 6.79 | XRPD 4 h ([4]; pH 6.8 buffer): Form I | XRPD 24 h ([4]; pH 6.8 buffer): Form I | pH 4 h [4, 17]: 9.16 | pH 24 h [4, 17]: 9.15 | XRPD 4 h ([4]; pH 9.0 buffer): Form I | XRPD 24 h ([4]; pH 9.0 buffer): Form I | solubility at 4 h [4, 18]: > 44400 µg/mL | solubility at 24 h [4, 18]: > 44500 µg/mL | form change of the solid ([4]; the other conditions (other buffers and time points)): remained unchanged | solubility ([6]; DCM/MeOH (4/1, v/v), DCM/MeOH (4/1)): > 50 mg/mL | solubility ([6]; most solvent systems): < 5 mg/mL | XRPD 0.5 h ([7]; FaSSIF): Unchanged | XRPD 2 h ([7]; FaSSIF): Unchanged | XRPD 24 h ([7]; FaSSIF): Unchanged | Solubility 0.5 h [7, 19]: 0.013 mg/mL (≈ 29.6 µM) | Solubility 2 h [7, 19]: 0.015 mg/mL (≈ 34.1 µM) | Solubility 24 h [7, 19]: 0.015 mg/mL (≈ 34.1 µM) | pH 0.5 h [7, 20]: 6.47 | pH 2 h [7, 20]: 6.39 | pH 24 h [7, 20]: 6.44 | XRPD 0.5 h ([7]; FeSSIF): Unchanged | XRPD 2 h ([7]; FeSSIF): Unchanged | XRPD 24 h ([7]; FeSSIF): Unchanged | Solubility 0.5 h [7, 21]: 0.082 mg/mL (≈ 186 µM) | Solubility 2 h [7, 21]: 0.083 mg/mL (≈ 189 µM) | Solubility 24 h [7, 21]: 0.080 mg/mL (≈ 182 µM) | pH 0.5 h [7, 22]: 5.01 | pH 2 h [7, 22]: 4.98 | pH 24 h [7, 22]: 4.82 | XRPD 0.5 h, 2 h, 24 h ([7]; SGF): Clear | solubility ([7]; SGF, 37 °C, pH 1.23, simulated gastric fluid, thermodynamic from solid, SGF, 37° C., read-out: solubility in SGF): > 5000 µg/mL | Solubility 0.5 h, 2 h, 24 h ([7]; SGF, initial pH 1.23, 37° C.): >5 mg/mL | pH 0.5 h ([7]; SGF, initial pH 1.23, filtrate): 1.33 | pH 2 h ([7]; SGF, initial pH 1.23, filtrate): 1.20 | pH 24 h ([7]; SGF, initial pH 1.23, filtrate): 1.28 | XRPD 0.5 h ([7]; Water): Unchanged | XRPD 2 h ([7]; Water): Unchanged | XRPD 24 h ([7]; Water): Unchanged | Solubility 0.5 h ([7]; Water, initial pH 5.41, 37° C.): 0.011 mg/mL (≈ 25 µM) | Solubility 2 h ([7]; Water, initial pH 5.41, 37° C.): 0.011 mg/mL (≈ 25 µM) | Solubility 24 h ([7]; Water, initial pH 5.41, 37° C.): 0.010 mg/mL (≈ 22.7 µM) | pH 0.5 h [7, 23]: 5.93 | pH 2 h [7, 23]: 6.54 | pH 24 h [7, 23]: 7.54 | crystal form after solubility test ([7]; XRPD of filter cake): remained unchanged | solubility in the other media (in words) ([7]; media other than SGF (FaSSIF, FeSSIF, water), 37° C.): low solubility
SMILES: C[C@@H]1[C@@H](Oc2ccc(C(=O)NC3CC3)nc2)CN1Cc1cnc2cc(Cl)c(=O)[nH]c2c1 [Freebase Form I, 5-(((2R,3S)-1-((7-chloro-6-oxo-5,6-dihydro-1,5-naphthyridin-3-yl)methyl)-2-methylazetidin-3-yl)oxy)-N-cyclopropylpicolinamide]
crystal form after grinding (XRPD) [2]: remained unchanged with little crystallinity decrease | relative stability of the crystal form [5]: more stable anhydrate at RT to 80 °C; also recorded: Stable below 80 °C

time to complete conversion to L-tartrate Form III [8]: less than 20 min
SMILES: C[C@@H]1[C@@H](Oc2ccc(C(=O)NC3CC3)nc2)CN1Cc1cnc2cc(Cl)c(=O)[nH]c2c1 [L-Tartrate Salt Form IV, 5-(((2R,3S)-1-((7-chloro-6-oxo-5,6-dihydro-1,5-naphthyridin-3-yl)methyl)-2-methylazetidin-3-yl)oxy)-N-cyclopropylpicolinamide]
